Results reported in patent US20250275969A1, “METHODS OF TREATING MALIGNANT PERIPHERAL NERVE SHEATH TUMOR (MPNST) USING LSD1 INHIBITORS” (ORYZON GENOMICS, S.A., priority 2022, published 2025).

Legend:
Assay type in all cases: cell-based
sNF02.2 = experiment: MPNST viability assay (6 days, MTT or AlamarBlue); details: for EC50: cell viability, sNF02.2, 6 days of treatment
Protocol: (§1) Mycoplasma-free MPNST cell lines (see Table 1) were seeded in 50 μl/well of complete medium (DMEM high glucose supplemented with 1× GlutaMAX™, 1× sodium pyruvate and 10% fetal bovine serum (FBS), Thermo Fisher) in 96-well plates at the optimal cell density to ensure log-phase growth throughout the duration of the experiment (see Table 1). The day after seeding, 50 μl of medium containing 9 serial dilutions (1:3) of 2×-concentrated iadademstat (LSD1 inhibitor; used as the dihydrochloride salt) were added to the cells to obtain 100 μl of cells treated with 1×-concentrated compound at each dilution. Etoposide (topoisomerase II/DNA synthesis inhibitor) was also included as a positive control of the assay. Additionally, from the MPNST cell line panel, two cell lines (sNF96.2 and sNF02.2) were selected to evaluate the effect of other LSD1 inhibitors, i.e. bomedemstat (bis-tosylate salt) and pulrodemstat (besylate salt). Each experimental condition was tested in technical triplicates, including medium-only wells and vehicle-treated controls for background correction and normalization, respectively. After treatment, cells were incubated at 37° C. in a humidified and controlled 5% CO2 atmosphere for 72 h. At this time-point, compound and medium refreshment was performed by adding 50 μl of medium supplemented with 1×-concentrated compound at each corresponding dilution. Cells were incubated for additional 72 h (for a total of 6 days) prior to evaluating cell viability using either the MTT assay (Sigma-Aldrich) or AlamarBlue™ Cell viability reagent (Life Technologies), following manufacturer's instructions. Background was calculated as the mean of the values of medium-only controls and subtracted from each data point. The average of background-corrected technical triplicates was calculated and normalized by the mean of vehicle-treated controls (corresponding to 100% of viability). Data were analyzed using GraphPad PRISM® version 9.0.1 (GraphPad Software, Inc., La Jolla, CA/USA) to calculate the best-fitting curves and the EC50 values (corresponding to the concentration of compound at which a half (50%) maximal effect is obtained; lower EC50 values thus indicate greater potency).
(§2) LSD1 inhibitors such as iadademstat have been reported to exert their therapeutic effect by inducing cancer cell differentiation and inhibiting cancer cell proliferation rather than by killing cancer cells (Sacilotto N et al., ACS Pharmacol Transl Sci, 2021, 4(6):1818-34, doi: 10.1021/acsptsci.1c00223). In line with this, a cancer cell viability reduction of more than 30% reflects a potent therapeutic effect of the corresponding LSD1 inhibitor. In the present experiment, the response obtained after LSD1 inhibitor treatment was therefore classified into the following three groups: (1) strong response (viability reduction >30%); (2) medium response (viability reduction >15% and <30%); (3) low response (viability reduction <15%). Table 3 summarizes the EC50 values obtained for etoposide (the positive control of the assay) and iadademstat together with the classification according to viability reduction after LSD1 inhibitor treatment.

sNF96.2 = experiment: MPNST viability assay (6 days, MTT or AlamarBlue); details: for EC50: cell viability, sNF96.2, 6 days of treatment
Protocol: as §1, §2

90-8TL = experiment: MPNST viability assay (6 days, MTT or AlamarBlue); details: for EC50: cell viability, 6 days of treatment
Protocol: as §1, §2

HS-PSS = experiment: MPNST viability assay (6 days, MTT or AlamarBlue); details: for EC50: cell viability, 6 days of treatment
Protocol: as §1, §2

MPNST-NF1-08 = experiment: MPNST viability assay (6 days, MTT or AlamarBlue)
Protocol: as §1, §2

MPNST-NF1-09 = experiment: MPNST viability assay (6 days, MTT or AlamarBlue)
Protocol: as §1, §2

MPNST-NF1-18b = experiment: MPNST viability assay (6 days, MTT or AlamarBlue); details: for EC50: cell viability, 6 days of treatment
Protocol: as §1, §2

MPNST-SP-01 = experiment: MPNST viability assay (6 days, MTT or AlamarBlue)
Protocol: as §1, §2

MPNST-SP-10 = experiment: MPNST viability assay (6 days, MTT or AlamarBlue); details: for EC50: cell viability, MPNST-SP-10, 6 days of treatment
Protocol: as §1, §2

NMS-2 = experiment: MPNST viability assay (6 days, MTT or AlamarBlue)
Protocol: as §1, §2

S462 = experiment: MPNST viability assay (6 days, MTT or AlamarBlue); details: for EC50: cell viability, S462, 6 days of treatment
Protocol: as §1, §2

ST88-14 = experiment: MPNST viability assay (6 days, MTT or AlamarBlue); details: for EC50: cell viability, ST88-14, 6 days of treatment
Protocol: as §1, §2

[1] = system: panel of 12 MPNST cell lines; experiment: MPNST viability assay, summary over the cell line panel
Protocol: as §1
A panel of 12 MPNST cell lines was used to evaluate the effects of the LSD1 inhibitor iadademstat on MPNST cell viability after 6 days of treatment, and etoposide was used as a positive control of the assay. In order for the in vitro experiments to reliably mirror the situation in the clinical setting, where MPNST patients feature a great genomic heterogeneity, a panel of different types of MPNST cell lines was used. The panel comprises both MPNST immortalized lines and MPNST cell lines derived from patients. […]

[2] = viability reduction class, 6 days

CN1CCN(C(=O)[C@H](CCCN[C@@H]2C[C@H]2c2ccc(F)cc2)NC(=O)c2ccc(-n3ccnn3)cc2)CC1 [Bomedemstat, N-[(2S)-5-{[(1R,2S)-2-(4-fluorophenyl)cyclopropyl]amino}-1-(4-methylpiperazin-1-yl)-1-oxopentan-2-yl]-4-(1H-1,2,3-triazol-1-yl)benzamide]
EC50 (sNF02.2; 144 h): 0.094 nM | EC50 (sNF96.2; 144 h): 1.28 nM

COc1ccc(-c2c(-c3ccc(C#N)c(F)c3)nc(N3CCC(N)CC3)n(C)c2=O)cc1F [Pulrodemstat, 4-[2-(4-aminopiperidin-1-yl)-5-(3-fluoro-4-methoxyphenyl)-1-methyl-6-oxo-1,6-dihydropyrimidin-4-yl]-2-fluorobenzonitrile]
EC50 (sNF02.2; 144 h): 0.166 nM | EC50 (sNF96.2; 144 h): 0.261 nM

COc1cc([C@@H]2c3cc4c(cc3[C@@H](O[C@@H]3O[C@@H]5CO[C@@H](C)O[C@H]5[C@H](O)[C@H]3O)[C@H]3COC(=O)[C@H]23)OCO4)cc(OC)c1O [etoposide]
EC50 (90-8TL): 164 nM | EC50 (HS-PSS): 205 nM | EC50 (MPNST-NF1-08; cell viability, MPNST-NF1-08, 6 days of treatment): 740 nM | EC50 (MPNST-NF1-09; cell viability, MPNST-NF1-09, 6 days of treatment): 737 nM | EC50 (MPNST-NF1-18b): 394 nM | EC50 (MPNST-SP-01; cell viability, MPNST-SP-01, 6 days of treatment): 1030 nM | EC50 (MPNST-SP-10): 269 nM | EC50 (NMS-2; cell viability, NMS-2, 6 days of treatment): 154 nM | EC50 (S462): 376 nM | EC50 (ST88-14): 788 nM | EC50 (sNF02.2): 144 nM | EC50 (sNF96.2): 108 nM

N[C@H]1CC[C@H](N[C@@H]2C[C@H]2c2ccccc2)CC1 [iadademstat, (trans)-N1-((1R,2S)-2-phenylcyclopropyl)cyclohexane-1,4-diamine]
EC50 (90-8TL; 144 h): 0.026 nM | Response to iadademstat (viability assay) (90-8TL; [2]): Medium response (medium response (viability reduction >15% and <30%)) | EC50 (HS-PSS; 144 h): 0.046 nM | Response to iadademstat (viability assay) (HS-PSS; [2]): Medium response (medium response (viability reduction >15% and <30%)) | Response to iadademstat (viability assay) (MPNST-NF1-08; viability reduction class, MPNST-NF1-08, 6 days): Low response (low response (viability reduction <15%)) | Response to iadademstat (viability assay) (MPNST-NF1-09; viability reduction class, MPNST-NF1-09, 6 days): Low response (low response (viability reduction <15%)) | EC50 (MPNST-NF1-18b; 144 h): 0.025 nM | Response to iadademstat (viability assay) (MPNST-NF1-18b; [2]): Strong response (strong response (viability reduction >30%)) | Response to iadademstat (viability assay) (MPNST-SP-01; viability reduction class, MPNST-SP-01, 6 days): Low response (low response (viability reduction <15%)) | EC50 (MPNST-SP-10; 144 h): 0.033 nM | Response to iadademstat (viability assay) (MPNST-SP-10; viability reduction class, MPNST-SP-10, 6 days): Medium response (medium response (viability reduction >15% and <30%)) | Response to iadademstat (viability assay) (NMS-2; viability reduction class, NMS-2, 6 days): Low response (low response (viability reduction <15%)) | EC50 (S462; 144 h): 0.087 nM | Response to iadademstat (viability assay) (S462; viability reduction class, S462, 6 days): Strong response (strong response (viability reduction >30%)) | EC50 (ST88-14; 144 h): 0.039 nM | Response to iadademstat (viability assay) (ST88-14; viability reduction class, ST88-14, 6 days): Medium response (medium response (viability reduction >15% and <30%)) | EC50 (sNF02.2; 144 h): 0.017 nM | potency among the LSD1 inhibitors tested (in words) (sNF02.2; sNF02.2, compared with bomedemstat and pulrodemstat): highest potency | Response to iadademstat (viability assay) (sNF02.2; viability reduction class, sNF02.2, 6 days): Medium response (medium response (viability reduction >15% and <30%)) | EC50 (sNF96.2; 144 h): 0.042 nM | potency among the LSD1 inhibitors tested (in words) (sNF96.2; sNF96.2, compared with bomedemstat and pulrodemstat): highest potency | Response to iadademstat (viability assay) (sNF96.2; viability reduction class, sNF96.2, 6 days): Strong response (strong response (viability reduction >30%)) | cell lines showing a strong viability reduction ([1]; 3 out of 12 cell lines, 6-day treatment): 25% | cell lines showing a medium viability reduction ([1]; 5 out of 12 cell lines, 6-day treatment): 41.67% | EC50 values (in words) ([1]; medium- and strong-responding cell lines): subnanomolar | medium- and strong-responding cell lines, total ([1]; of 12 cell lines, 6-day treatment): 66.67%
